Assay: Assay of physical mixtures and extrudates for API stability by HPLC-UV
Format: physicochemical
Settings: after the grinding and sieving process as well as extrusion; physical mixture and extrudate
Description: Physical mixtures were assayed for drug load and stability post grinding and sieving. 5 mg of sample was weighed into an aluminum weighing boat and transferred to a low-binding Eppendorf, followed by the addition of 50 uL of ACN. This was vortexed vigorously until the polymer had dissolved and the API precipitated. Next, water was added and the mixture vortexed vigorously again until the API dissolved completely, and polymer had precipitated. For the 18% drug loaded physical mixtures, 2950 μL water was added and for the 9% drug loaded physical mixtures, 1450 μL water was added. Lastly, the Eppendorfs were centrifuged for 30 seconds at a speed of 5′000 RPM.
Extrudates were assayed for drug load and stability by cutting them to specific weights to give the same end concentration as the standards (net peptide concentration of 0.3 mg/mL) after the addition of diluent. […] Lastly, the Eppendorfs were centrifuged and supernatants analyzed.
Drug load and stability of API in the extrudates were quantified by HPLC-UV as describe above. […] Additionally, the homogeneity of the entire length of the extrudate was assessed by cutting and weighing three 3 mm pieces from each section from 1 to 16 (N=16, n=3) and assaying in the same way as outlined above (Assay of physical mixtures by HPLC-UV). Lastly, the average diameter of the extrudates was measured by caliper.

C[C@@H](O)[C@H](NN)C(=O)N[C@@H](CCCCN)C(=O)N1CCC[C@H]1C(=O)N[C@@H](CCCNC(=N)N)C(=O)C(=O)CNNC(Cc1ccc(O)c(/N=N/c2ccc(OP(=O)([O-])OCC[N+](C)(C)C)cc2)c1)C(=O)O (stereo partly shown) [PTC, Dazdotuftide]
stability of API after processing: stable

From US20260021158A1, “GRANULAR COMPOSITIONS COMPRISING A PEPTIDE AND USES THEREOF” (TARSIER PHARMA LTD., priority 2022, published 2026)
